Active and inactive are the calls of the source. No cut-off for these calls is given here. Peptide text beside a SMILES is read from it.

In one assay the test system is OVCAR-3. The assay is described as follows: Cytotoxicity against human OVCAR-3 cells at 50 ug/mL. It counts as functional, cell-based.
For another assay, the system named is COLO 205. The assay is described as follows: Cytotoxicity against human COLO205 cells at 50 ug/mL. It counts as functional, cell-based.

For `C[C@@H]1NC(=O)[C@H]([C@@H](C)O)NC(=O)[C@H](Cc2ccc(O)cc2)NC(=O)[C@@H]2CCCN2C(=O)[C@H](Cc2ccc(O)cc2)NC(=O)[C@H](CCCNC(=N)N)NC(=O)[C@@H]2CCCN2C(=O)[C@H](CC(N)=O)NC1=O` (cyclo(ANPRYPYT)), the outcome in the assay on OVCAR-3 and with COLO 205 was inactive.

For the origin of these results see ChEMBL document CHEMBL1146508, “Cyclonellin, a new cyclic octapeptide from the marine sponge Axinella carteri” (J Nat Prod, 2004).
